# Experimental data from patent publication EP0179583A1, “A system for enhancing the water dissolution rate and solubility of poorly soluble drugs” (Merck & Co., Inc., priority 1984, dated 1986).
# Legend:
# Assay type in all cases: physicochemical
# [1] = Dissolution of compressed tablets in water (Example 10); conditions: compressed tablets of ivermectin alone
# Experimental: The dissolution of said tablets to yield a clear infinitely diluable aqueous solution of ivermectin is very rapid (15 minutes with gentle agitation).
# [2] = Dissolution of thermoplastic solids in deionized distilled water (Example 12); conditions: ivermectin into an aqueous solution of an equivalent amount of thermoplastic surfactant
# [3] = Solubility in deionized distilled water (Example 14)
# Experimental: A solution of 5% (50 mg/ml) w/v ivermectin is prepared by dissolving the product in Examples 1-5 and 7-9 in sufficient deionized distilled water. A mixture of an equivalent amount of ivermectin in deonized distilled water is only marginally soluble (1-4 mcg/ml). Therefore, the solubility of a poorly water soluble drug is enhanced (50,000 mcg/ml).
# [4] = Dissolution rate, solution/adsorption products versus comparison (Example 11); conditions: added alone or dissolved in glycerol formal to an aqueous surfactant solution
# Excerpt: 37 parts of each of the solutions produced in Examples 5 and 6 is dry blended with I part of Accurel powder (50-75% void space). This mixture is then blended with 12 parts of Cab-O-Sil to produce a dry free-flowing powder which may be used as such or tableted as in Example 10.
substance,measurement,setting,value
ivermectin,time within which tablets do not dissolve or disintegrate,[1],> 3 days
same,dissolution rate compared with the method of the invention,[2],significantly slower
same,solubility,[3],1 to 4 µg/mL
same,dissolution rates compared with the invention,[4],less than those observed with the invention
